Assay results taken from the NIST ThermoML archive (doi:10.1021/je5008789).

Conditions: Liquid; for mass density: Vibrating tube method; for viscosity: Vibrating wire viscometry

CC(C)CCCC(C)CCCC(C)CCCCC(C)CCCC(C)CCCC(C)C (stereo unspecified) [2,6,10,15,19,23-hexamethyltetracosane]
Conditions | mass density [kg/m3] | viscosity [mPa·s]
413.24 K, 140200 kPa | 815.07 | 7.831
413.25 K, 160570 kPa | 822.8 | 9.322
413.25 K, 181450 kPa | 829.85 | 11.12
413.25 K, 202090 kPa | 836.75 | 13.06
433.18 K, 1120 kPa | 717.8 | 1.324
433.19 K, 60430 kPa | 767.55 | 2.785
433.19 K, 160660 kPa | 815.65 | 6.774
433.19 K, 180700 kPa | 823.09 | 7.891
433.19 K, 200370 kPa | 830.05 | 9.057
433.2 K, 80190 kPa | 779.13 | 3.392
433.21 K, 100280 kPa | 789.84 | 4.072
433.21 K, 120040 kPa | 798.72 | 4.865
433.21 K, 140200 kPa | 807.55 | 5.754
433.31 K, 600 kPa | 717.04 | 1.309
433.35 K, 20500 kPa | 737.74 | 1.749
433.36 K, 680 kPa | 717.22 | 1.309
433.36 K, 40310 kPa | 753.83 | 2.231
452.85 K, 201770 kPa | 823.37 | 6.867
452.95 K, 163170 kPa | 809.3 | 5.261
452.95 K, 180270 kPa | 815.84 | 5.937
453.15 K, 1150 kPa | 704.74 | 1.062
453.16 K, 20190 kPa | 726.4 | 1.405
453.17 K, 40450 kPa | 744.09 | 1.796
453.18 K, 60480 kPa | 758.43 | 2.222
453.18 K, 80140 kPa | 770.59 | 2.681
453.18 K, 100410 kPa | 781.58 | 3.214
453.19 K, 160150 kPa | 808.49 | 5.142
453.2 K, 120790 kPa | 791.61 | 3.8
453.2 K, 140400 kPa | 800.32 | 4.438
453.2 K, 180710 kPa | 816.55 | 5.945
472.81 K, 1050 kPa | 691.59 | 0.867
473.03 K, 200210 kPa | 815.83 | 5.348
473.04 K, 1050 kPa | 691.45 | 0.868
473.05 K, 150 kPa | 690.19 | 0.853
473.05 K, 20040 kPa | 715.2 | 1.151
473.05 K, 39890 kPa | 733.71 | 1.465
473.05 K, 120200 kPa | 783.48 | 3.031
473.05 K, 140440 kPa | 792.71 | 3.531
473.05 K, 160340 kPa | 801 | 4.073
473.05 K, 180470 kPa | 808.83 | 4.671
473.06 K, 60230 kPa | 749.17 | 1.81
473.06 K, 79910 kPa | 761.86 | 2.175
473.07 K, 100370 kPa | 773.42 | 2.59
